Assay results published in the NIST ThermoML archive (doi:10.1016/j.jct.2018.04.018).
“And” between values parts separate entries of the source, which are not always exact repeats. Identical values can stand only once. ± gives the expanded uncertainty stated by the source.

Details: 101.33 kPa, Liquid; for speed of sound: Single path-length method; for mass density: Vibrating tube method

CCCCCCCC[n+]1ccn(C)c1.F[P-](F)(F)(F)(F)F [1-octyl-3-methylimidazolium hexafluorophosphate]
Details	viscosity
332.11 K, Cone and plate viscometry	101.6 ± 4.4 mPa·s
332.85 K, Cone and plate viscometry	99.6 ± 4.3 mPa·s and 99.3 ± 4.3 mPa·s
333.15 K, Concentric cylinders viscometry	98.3 ± 2.2 mPa·s
333.59 K, Cone and plate viscometry	95.7 ± 4.1 mPa·s and 96 ± 4.1 mPa·s
334.34 K, Cone and plate viscometry	92.5 ± 4 mPa·s
334.35 K, Cone and plate viscometry	93 ± 4 mPa·s
335.07 K, Cone and plate viscometry	89.7 ± 3.8 mPa·s
335.09 K, Cone and plate viscometry	89.6 ± 3.8 mPa·s
335.82 K, Cone and plate viscometry	86.7 ± 3.7 mPa·s and 86.8 ± 3.7 mPa·s
336.57 K, Cone and plate viscometry	84.1 ± 3.6 mPa·s
337.31 K, Cone and plate viscometry	81.6 ± 3.4 mPa·s and 81.7 ± 3.4 mPa·s
338.05 K, Cone and plate viscometry	79.3 ± 3.3 mPa·s
338.06 K, Cone and plate viscometry	78.8 ± 3.3 mPa·s
338.79 K, Cone and plate viscometry	76.6 ± 3.2 mPa·s
338.81 K, Cone and plate viscometry	76.2 ± 3.2 mPa·s
339.54 K, Cone and plate viscometry	73.9 ± 3.1 mPa·s and 74.2 ± 3.1 mPa·s
340.28 K, Cone and plate viscometry	72 ± 3 mPa·s
340.29 K, Cone and plate viscometry	71.9 ± 3 mPa·s
341.03 K, Cone and plate viscometry	70 ± 2.9 mPa·s
341.04 K, Cone and plate viscometry	69.8 ± 2.9 mPa·s
341.77 K, Cone and plate viscometry	68 ± 2.8 mPa·s and 68.1 ± 2.8 mPa·s
342.51 K, Cone and plate viscometry	66.1 ± 2.7 mPa·s and 66.6 ± 2.8 mPa·s
343.15 K, Concentric cylinders viscometry	64.9 ± 1.4 mPa·s
343.25 K, Cone and plate viscometry	64.1 ± 2.7 mPa·s and 63.9 ± 2.6 mPa·s
344 K, Cone and plate viscometry	62.2 ± 2.6 mPa·s and 62 ± 2.6 mPa·s
344.73 K, Cone and plate viscometry	60.4 ± 2.5 mPa·s
344.76 K, Cone and plate viscometry	60.4 ± 2.5 mPa·s
345.48 K, Cone and plate viscometry	58.8 ± 2.4 mPa·s
345.51 K, Cone and plate viscometry	58.8 ± 2.4 mPa·s
346.22 K, Cone and plate viscometry	57.2 ± 2.4 mPa·s
346.29 K, Cone and plate viscometry	56.9 ± 2.3 mPa·s
346.97 K, Cone and plate viscometry	55.4 ± 2.3 mPa·s
347.05 K, Cone and plate viscometry	55.1 ± 2.3 mPa·s
347.72 K, Cone and plate viscometry	53.8 ± 2.2 mPa·s
347.81 K, Cone and plate viscometry	53.7 ± 2.2 mPa·s
348.46 K, Cone and plate viscometry	52.4 ± 2.1 mPa·s
348.57 K, Cone and plate viscometry	52.3 ± 2.1 mPa·s
349.19 K, Cone and plate viscometry	51.1 ± 2.1 mPa·s
349.33 K, Cone and plate viscometry	50.8 ± 2.1 mPa·s
349.94 K, Cone and plate viscometry	49.7 ± 2 mPa·s
350.07 K, Cone and plate viscometry	49.4 ± 2 mPa·s
350.69 K, Cone and plate viscometry	48.3 ± 2 mPa·s
350.77 K, Cone and plate viscometry	48.2 ± 2 mPa·s
351.42 K, Cone and plate viscometry	47 ± 1.9 mPa·s
351.48 K, Cone and plate viscometry	47.2 ± 1.9 mPa·s
352.16 K, Cone and plate viscometry	46 ± 1.9 mPa·s
352.22 K, Cone and plate viscometry	46.3 ± 1.9 mPa·s
352.91 K, Cone and plate viscometry	45.1 ± 1.9 mPa·s
352.99 K, Cone and plate viscometry	45.2 ± 1.9 mPa·s
353.15 K, Concentric cylinders viscometry	44.7 ± 0.9 mPa·s
353.66 K, Cone and plate viscometry	43.7 ± 1.8 mPa·s
353.75 K, Cone and plate viscometry	44.3 ± 1.8 mPa·s
354.39 K, Cone and plate viscometry	42.6 ± 1.8 mPa·s
354.48 K, Cone and plate viscometry	43 ± 1.8 mPa·s
355.14 K, Cone and plate viscometry	41.9 ± 1.7 mPa·s
355.2 K, Cone and plate viscometry	42 ± 1.7 mPa·s
355.88 K, Cone and plate viscometry	40.9 ± 1.7 mPa·s
355.92 K, Cone and plate viscometry	41.3 ± 1.7 mPa·s
356.63 K, Cone and plate viscometry	40.2 ± 1.7 mPa·s
356.66 K, Cone and plate viscometry	40.5 ± 1.7 mPa·s
357.36 K, Cone and plate viscometry	39 ± 1.6 mPa·s
357.39 K, Cone and plate viscometry	39.2 ± 1.6 mPa·s
358.1 K, Cone and plate viscometry	37.6 ± 1.6 mPa·s
358.11 K, Cone and plate viscometry	38 ± 1.6 mPa·s
358.85 K, Cone and plate viscometry	36.5 ± 1.5 mPa·s
358.86 K, Cone and plate viscometry	37 ± 1.5 mPa·s
359.6 K, Cone and plate viscometry	35.6 ± 1.5 mPa·s and 36.5 ± 1.5 mPa·s
360.35 K, Cone and plate viscometry	34.8 ± 1.4 mPa·s and 35.7 ± 1.5 mPa·s
361.08 K, Cone and plate viscometry	34.6 ± 1.4 mPa·s
361.09 K, Cone and plate viscometry	35 ± 1.4 mPa·s
361.82 K, Cone and plate viscometry	33.9 ± 1.4 mPa·s and 34 ± 1.4 mPa·s
362.57 K, Cone and plate viscometry	32.8 ± 1.4 mPa·s
362.58 K, Cone and plate viscometry	32.5 ± 1.3 mPa·s
363.15 K, Concentric cylinders viscometry	32.1 ± 0.7 mPa·s
363.31 K, Cone and plate viscometry	32.1 ± 1.3 mPa·s
363.32 K, Cone and plate viscometry	31.9 ± 1.3 mPa·s
364.05 K, Cone and plate viscometry	31.3 ± 1.3 mPa·s and 31.4 ± 1.3 mPa·s
364.79 K, Cone and plate viscometry	31.1 ± 1.3 mPa·s
364.8 K, Cone and plate viscometry	30.9 ± 1.3 mPa·s
365.54 K, Cone and plate viscometry	29.7 ± 1.2 mPa·s and 30.4 ± 1.2 mPa·s
366.28 K, Cone and plate viscometry	29.6 ± 1.2 mPa·s
366.29 K, Cone and plate viscometry	29.1 ± 1.2 mPa·s
367.02 K, Cone and plate viscometry	28.7 ± 1.2 mPa·s and 28.9 ± 1.2 mPa·s
367.76 K, Cone and plate viscometry	27.9 ± 1.1 mPa·s and 28.2 ± 1.2 mPa·s
368.49 K, Cone and plate viscometry	27.6 ± 1.1 mPa·s
368.51 K, Cone and plate viscometry	27.1 ± 1.1 mPa·s
369.24 K, Cone and plate viscometry	27 ± 1.1 mPa·s

Details	mass density	speed of sound [m/s]
333.15 K	1209.85 ± 2.9 kg/m3 [middle of 4 runs]	1318.6 ± 1.4
343.15 K	1202.43 ± 2.9 kg/m3 [middle of 4 runs]	–
343.16 K	–	1296.1 ± 1.4
353.15 K	1195.18 ± 2.9 kg/m3 and 1195.41 ± 2.9 kg/m3	–
363.15 K	1188.37 ± 2.9 kg/m3 and 1188.53 ± 2.9 kg/m3	–
